Test results published in PMC10848080 (CNS Neuroscience & Therapeutics, 2023).
In brackets after ≈: the same amount, converted by molar mass.

How the values were obtained:
6-OHDA-lesioned rats = assay: Open-field test in 6-OHDA-lesioned rats; assay type: in vivo, rat; conditions: L-dopa 60 mg/kg, PIP 20 mg/kg, once a day for 6 weeks
Description: Adaptively raised for 1 week, SD rats were randomly divided into two groups: the sham‐operated group (n = 6) and the 6‐OHDA‐lesioned group (n = 36). After deep anesthesia, the rats were stereotaxically injected with 3 μL 6‐OHDA (4 mg/mL in 0.02% ascorbic acid saline; Sigma) into the left striatum following our previously described protocol,[17] and the rats in sham group were injected with 3 μL vehicle (0.02% ascorbic acid saline).
(§1) The damage of rat dopaminergic neurons was assessed by apomorphine (APO, Sigma)‐induced rotation tests at the 5th, 8th, and 11th weeks of experiment.[17] […] The dosages of PIP used in the present study were safe for rats.[21] Rats were treated once a day for 6 weeks. The 6‐OHDA group and sham group were treated with the same volume of substrate solution (0.5% CMC‐Na).
Open‐field test was conducted on the 2nd day after the rotation test. The movements in 5 min of rats in open‐field apparatus (100 × 100 × 40 cm), including total movement distance (cm) and horizontal velocity (cm/s), were recorded by the TruScan Activity Monitoring System (USA). Abnormal involuntary movements (AIMs) were scored according to the rating system described in Lee's study.[22] […] Then, the dyskinesia behaviors of rats, including axial dystonia, reverse rotation, and limb and masticatory dyskinesia, were evaluated during a 1‐min monitoring period, repeated every 20 min for 2 h. […]

DA in rat striatum = assay: Striatal DA content by HPLC-ECD in 6-OHDA-lesioned rats; assay type: in vivo; conditions: 6 weeks, L-dopa vs 6-OHDA, combination vs L-dopa alone in lesioned striatum
E. faecalis [1] = assay: qPCR quantification of E. faecalis in feces of 6-OHDA-lesioned rats; assay type: in vivo, rat; conditions: PIP 10 and 20 mg/kg after 3 weeks, dose-dependent, combination vs L-dopa after 6 weeks
Description: as §1
(§2) Fecal microbial genomic DNA was extracted using the TIANamp Stool DNA Kit (TIANGEN). Plasmids containing the target sequences of E. faecalis 16 S rRNA and TDC were prepared (Figure S1A,B). Then, 10‐fold serial dilutions of plasmid were used as the templates to make the standard curves for absolute quantification. Quantitative PCR (qPCR) experiments were performed on 40 ng DNA in 20 μL reactions, following the amplification program: initial denaturation at 95°C for 15 min, 45 cycles of 95°C for 10 s, 58°C for 31 s, 72°C for 30 s, ended with a final extension at 72°C for 10 min. The absolute E. faecalis 16 S rRNA gene and TDC gene copies in fecal DNA samples were calculated based on the standard curves.

TDC [2] = assay: qPCR quantification of TDC in feces of 6-OHDA-lesioned rats; assay type: in vivo, rat; conditions: PIP dose-dependent, after 3 weeks, vs 6-OHDA
Description: as §1, §2

E. faecalis [3] = assay: qPCR of E. faecalis in feces of E. faecalis-transplanted rats; assay type: in vivo, rat; conditions: 1 week of administration, combination vs L-dopa alone
Description: as §2

TDC [4] = assay: TDC gene expression and specific activity in feces of E. faecalis-transplanted rats; assay type: in vivo, rat; conditions: 1 week of administration, combination vs L-dopa alone
Description: as §2
(§3) The rat feces were weighed and suspended in lysis buffer. After centrifugation at 800 g for 10 min, the supernatants were collected and added with lysozyme. The mixtures were centrifuged at 12,000 g for 20 min, and the supernatants were obtained for protein concentration determination and the detection of TDC level in rat feces using rat TDC ELISA kit (MM‐71824R1, MEIMIAN). The results are expressed as U/mg protein.

[5] = test system: intestinal bacteria of SD rats; assay: L-dopa conversion rate in rat intestinal bacteria (feces) culture in vitro; assay type: cell-based; conditions: 24 h, anaerobic, vs L-dopa alone
Description: (§4) The column was maintained at 40°C.
(§5) The whole blood, colon contents, jejunum, and brain tissues of SD rats (n = 6) were collected. Colonic contents were pooled and suspended in anaerobic medium (Aobox) at a ratio of 1:20 (g/mL), the mixtures were centrifuged at 800 g (4°C) for 10 min, and then collected the supernatant for culture. Tissues were pooled and weighed, then homogenized with 5 mM phosphate buffer (pH = 7.4) at the ratio of 1:5 (g/ml). […] The intestinal bacterial cultures were incubated in an anaerobic chamber, while tissues or blood incubation systems were incubated at 37°C for 12 and 24 h, and then the incubation was terminated with three‐fold acetonitrile. After centrifugation at 12,000 g for 10 min, the supernatants were collected for HPLC‐FLD analysis.

[6] = L-dopa conversion rate in rat whole blood and tissue homogenates in vitro; assay type: in vitro ADME; conditions: L-dopa 0.3 mM + PIP 10 or 20 μg/mL, 12 and 24 h, vs L-dopa alone
Description: as §4, §5

E. faecalis ATCC29212 = assay: L-dopa conversion rate in E. faecalis ATCC29212 culture; assay type: cell-based, Enterococcus faecalis; conditions: 24 h, anaerobic, vs L-dopa alone
Description: as §4
(§6) The growth control group and negative control group were set. The cultures were incubated at 37°C under an anaerobic environment. The 1 mL of incubation sample and twofold cold acetonitrile were added to terminate the incubation. After centrifugation at 12,000 g for 10 min, the supernatants were collected for HPLC‐FLD analysis.

[7] = biological target: T1, TDC (from E. faecalis NCTC6783) (Enterococcus faecalis, UniProt P0DTQ4); assay: TDC enzyme assay (DA produced from L-dopa); assay type: biochemical; conditions: 250 μM PIP, L-dopa 0.3 mM, pH 5.5, relative to solvent control
T1 construct: purchased Aladdin
T1 sequence (P0DTQ4 1-620): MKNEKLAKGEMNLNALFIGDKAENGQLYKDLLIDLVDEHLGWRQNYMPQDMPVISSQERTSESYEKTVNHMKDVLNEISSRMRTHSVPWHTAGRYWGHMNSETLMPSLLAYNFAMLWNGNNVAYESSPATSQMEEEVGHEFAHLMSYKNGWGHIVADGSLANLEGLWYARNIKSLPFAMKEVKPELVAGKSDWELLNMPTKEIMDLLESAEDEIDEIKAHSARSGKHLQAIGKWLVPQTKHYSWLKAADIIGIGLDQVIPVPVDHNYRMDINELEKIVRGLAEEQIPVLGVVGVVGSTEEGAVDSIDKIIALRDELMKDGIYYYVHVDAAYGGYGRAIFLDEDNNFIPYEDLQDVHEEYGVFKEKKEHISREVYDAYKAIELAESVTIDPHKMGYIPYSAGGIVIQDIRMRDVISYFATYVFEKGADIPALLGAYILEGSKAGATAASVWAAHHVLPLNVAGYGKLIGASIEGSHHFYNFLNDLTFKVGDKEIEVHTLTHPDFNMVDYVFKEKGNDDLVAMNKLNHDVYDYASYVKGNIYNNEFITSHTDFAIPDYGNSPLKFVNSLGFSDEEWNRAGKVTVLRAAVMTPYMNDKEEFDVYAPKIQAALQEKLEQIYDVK
Description: (§7) TDC (from E. faecalis NCTC6783, Aladdin; 0.02 mg/mL) and PLP (2 mM, Sigma) were pre‐incubated with various concentrations (0.01–250 μM) of PIP in 0.2 M sodium acetate buffer (pH = 5.5) at 37°C for 15 min. […] After 20 min of incubation, the reaction was quenched by diluting 1:10 in methanol containing 0.7% perchloric acid.[25] The mixture was centrifuged at 12,000 g (4°C) for 5 min, and the supernatant was collected for the determination of DA by HPLC‐ECD.

[8] = test system: TDC mRNA in E. faecalis ATCC29212; assay: RT-qPCR of TDC gene expression in E. faecalis ATCC29212; assay type: cell-based, Enterococcus faecalis; conditions: PIP 10 or 20 μg/mL, 24 h
Description: as §6
Total RNA was extracted from the culture pellets generated in the experiment described above “Incubation of E. faecalis in vitro” using the RNAprep Pure Cell/Bacteria Kit (TIANGEN). A FastQuant RT Kit (with gDNase) (TIANGEN) was used to transcribe RNA to cDNA. After that, RT–qPCR was conducted using 2 × SuperReal PreMix Plus (TIANGEN) and performed on the CFX Connect™ Real‐Time System (Bio–Rad) following the amplification program: 95°C for 15 min, followed by 40 cycles of 95°C for 10 s, 52°C for 31 s, and 72°C for 30 s. The program ended with a final extension at 72°C for 10 min. The relative gene expression was calculated using the 2^−^ΔΔ^Ct method.

TDC in E. faecalis = assay: ELISA of TDC specific activity in E. faecalis ATCC29212; assay type: cell-based, Enterococcus faecalis; conditions: PIP 10 or 20 μg/mL, 24 h
Description: as §6
The bacterial protein was extracted from the culture pellets generated as described above. After being washed with PBS three times, the bacterial pellets were re‐suspended in 400 μL PBS containing 2% ethanol and incubated in ice bath for 30 min. After centrifugation at 1000 g for 10 min, the sediments were collected and lysed using lysis buffer containing 100 μg/mL lysozyme, then centrifuged at 12,000 g for 20 min to collect the supernatants. After determining the protein concentration using the BCA kit (Beyotime), the assay of TDC level in E. faecalis was performed according to the Microorganism TDC Elisa kit (MM‐925239O2, MEIMIAN) guideline. Briefly, the extracted protein samples were added to the coated wells together with the balance solution and HRP conjugate reagent, then incubated at 37°C. […] After adding the stop solution to each well, the optical density was measured at the wavelength of 450 nm. The specific activity of TDC was calculated based on the standard curve. The results are expressed as U/mg protein.

[9] = test system: tyrosine hydroxylase (TH); assay: Western blot of tyrosine hydroxylase in lesioned substantia nigra; assay type: in vivo, rat; conditions: 6-OHDA-lesioned rats, 6 weeks
Description: as §1
The left substantia nigra (SN) of rat was lysed using non‐denaturing lysis buffer, and immunoblotting was performed following the reported protocol.[19] Protein homogenates were subjected to Western blot analysis using antibodies against tyrosine hydroxylase (TH, 1:1000, Sigma) and GAPDH (1:2000, Proteintech). The blots were visualized by a NcmECL Ultra Western blot diction kit (NCM Biotech), and densitometry was analyzed by using the Fusion FX Image system (Vilber Lourmat).

TDC [10] = assay: ELISA of TDC specific activity in feces of 6-OHDA-lesioned rats; assay type: in vivo, rat; conditions: 6-OHDA-lesioned rats after 6 weeks of administration; combination vs L-dopa alone
Description: as §3

[11] = Solubility limit of PIP in the TDC enzyme assay; assay type: physicochemical; conditions: 37 °C, pH 5.5, aqueous buffer
Description: as §7

[12] = design: method as in PMID 23603295; conditions: previous studies; cited from earlier work
MAO = test system: MAO; design: method as in PMID 32099971; conditions: reported; cited from earlier work
[13] = PIP 10 and 20 mg/kg, rats; cited from earlier work

## N[C@@H](Cc1ccc(O)c(O)c1)C(=O)O [L‐dopa, Levodopa]
6-OHDA-lesioned rats
  movement speed in open field: alleviate the bradykinesia
  total movement distance in open field: alleviate the bradykinesia
DA in rat striatum
  DA level in striatum (HPLC-ECD): significantly increased
E. faecalis [1]
  abundance of E. faecalis in feces (qPCR): did not show a notable effect
TDC [2]
  expression of TDC in feces (qPCR): further increased
E. faecalis [3]
  abundance of E. faecalis in feces: no significant effect
TDC [4]
  expression of TDC in feces: upregulation

## O=C(/C=C/C=C/c1ccc2c(c1)OCO2)N1CCCCC1 [PIP, piperine]
[5]; PIP 10 μg/mL + L-dopa 0.3 mM
  decrease of conversion rate (CR) of L-dopa: 17.02%
[5]; PIP 20 μg/mL + L-dopa 0.3 mM
  decrease of conversion rate (CR) of L-dopa: 27.55%
[6]; rat brain homogenate
  CR of L-dopa in brain homogenate: no significant difference
[6]; rat small intestine homogenate
  CR of L-dopa in small intestine homogenate: no significant difference
[6]; rat whole blood
  CR of L-dopa in blood: no significant difference
E. faecalis ATCC29212; PIP 10 μg/mL + L-dopa 0.3 mM
  decrease of CR of L-dopa: 17.22%
E. faecalis ATCC29212; PIP 20 μg/mL + L-dopa 0.3 mM
  decrease of CR of L-dopa: 32.01%
[7]
  decrease in TDC activity: 20.95%
[8]
  gene expression of TDC in E. faecalis: reduced
TDC in E. faecalis
  specific activity of TDC in E. faecalis: reduced
[9]
  lesions of dopaminergic neurons (TH protein level in SN): efficiently attenuate the lesions
E. faecalis [1]
  abundance of E. faecalis in feces (qPCR): significantly reduce
TDC [2]
  expression of TDC in feces (qPCR): significantly suppressive effect
TDC [10]
  specific activity of TDC in feces (ELISA): significantly decrease
[11]
  solubility: 250 µM (≈ 71.3 µg/mL)
[12]
  crossing of the blood-brain barrier: can cross
  tissue distribution: wide tissue distribution
MAO
  MAO inhibition: potential to inhibit MAO activity
[13]
  safety of the dosages used: safe
